By IC50 is commonly meant the concentration that inhibits the measured activity by half. What is called DC50 is the concentration giving 50% degradation.

Each structure is given as a SMILES string.

IC50 and DC50 data for 15 compounds are collected here from patent US20240051937A1, “ISOINDOLINONE AMIDE COMPOUNDS USEFUL TO TREAT DISEASES ASSOCIATED WITH GSPT1” (Monte Rosa Therapeutics, Inc., priority 2021, published 2024).

GSPT1, sequence (P15170 whole entry): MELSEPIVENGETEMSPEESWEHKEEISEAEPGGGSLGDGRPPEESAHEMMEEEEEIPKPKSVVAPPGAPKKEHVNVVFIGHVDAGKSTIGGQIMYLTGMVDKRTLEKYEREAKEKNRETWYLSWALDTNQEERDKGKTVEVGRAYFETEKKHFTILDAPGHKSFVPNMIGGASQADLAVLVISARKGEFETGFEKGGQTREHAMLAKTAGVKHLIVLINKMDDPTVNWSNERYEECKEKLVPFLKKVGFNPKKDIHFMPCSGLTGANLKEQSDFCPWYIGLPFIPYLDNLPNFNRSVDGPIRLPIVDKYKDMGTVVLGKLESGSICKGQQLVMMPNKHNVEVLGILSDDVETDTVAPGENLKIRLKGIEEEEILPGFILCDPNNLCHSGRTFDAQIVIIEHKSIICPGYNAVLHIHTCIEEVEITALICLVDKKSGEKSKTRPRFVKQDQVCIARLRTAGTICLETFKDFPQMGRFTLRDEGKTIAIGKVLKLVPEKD
GSPT1, sequence (Q96SW2 whole entry): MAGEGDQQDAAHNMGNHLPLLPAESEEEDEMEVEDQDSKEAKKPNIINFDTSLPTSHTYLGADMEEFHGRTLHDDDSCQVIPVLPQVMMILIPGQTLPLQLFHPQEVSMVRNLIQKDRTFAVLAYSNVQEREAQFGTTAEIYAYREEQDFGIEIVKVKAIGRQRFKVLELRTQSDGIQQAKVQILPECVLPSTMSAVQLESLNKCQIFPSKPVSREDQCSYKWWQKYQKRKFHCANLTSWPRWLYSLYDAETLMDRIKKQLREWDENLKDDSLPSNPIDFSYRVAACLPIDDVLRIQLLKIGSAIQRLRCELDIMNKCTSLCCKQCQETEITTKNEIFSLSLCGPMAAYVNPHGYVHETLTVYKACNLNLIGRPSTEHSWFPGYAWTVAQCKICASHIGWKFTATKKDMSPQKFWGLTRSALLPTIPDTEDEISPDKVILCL
GSPT1, sequence (Q16531 whole entry partner): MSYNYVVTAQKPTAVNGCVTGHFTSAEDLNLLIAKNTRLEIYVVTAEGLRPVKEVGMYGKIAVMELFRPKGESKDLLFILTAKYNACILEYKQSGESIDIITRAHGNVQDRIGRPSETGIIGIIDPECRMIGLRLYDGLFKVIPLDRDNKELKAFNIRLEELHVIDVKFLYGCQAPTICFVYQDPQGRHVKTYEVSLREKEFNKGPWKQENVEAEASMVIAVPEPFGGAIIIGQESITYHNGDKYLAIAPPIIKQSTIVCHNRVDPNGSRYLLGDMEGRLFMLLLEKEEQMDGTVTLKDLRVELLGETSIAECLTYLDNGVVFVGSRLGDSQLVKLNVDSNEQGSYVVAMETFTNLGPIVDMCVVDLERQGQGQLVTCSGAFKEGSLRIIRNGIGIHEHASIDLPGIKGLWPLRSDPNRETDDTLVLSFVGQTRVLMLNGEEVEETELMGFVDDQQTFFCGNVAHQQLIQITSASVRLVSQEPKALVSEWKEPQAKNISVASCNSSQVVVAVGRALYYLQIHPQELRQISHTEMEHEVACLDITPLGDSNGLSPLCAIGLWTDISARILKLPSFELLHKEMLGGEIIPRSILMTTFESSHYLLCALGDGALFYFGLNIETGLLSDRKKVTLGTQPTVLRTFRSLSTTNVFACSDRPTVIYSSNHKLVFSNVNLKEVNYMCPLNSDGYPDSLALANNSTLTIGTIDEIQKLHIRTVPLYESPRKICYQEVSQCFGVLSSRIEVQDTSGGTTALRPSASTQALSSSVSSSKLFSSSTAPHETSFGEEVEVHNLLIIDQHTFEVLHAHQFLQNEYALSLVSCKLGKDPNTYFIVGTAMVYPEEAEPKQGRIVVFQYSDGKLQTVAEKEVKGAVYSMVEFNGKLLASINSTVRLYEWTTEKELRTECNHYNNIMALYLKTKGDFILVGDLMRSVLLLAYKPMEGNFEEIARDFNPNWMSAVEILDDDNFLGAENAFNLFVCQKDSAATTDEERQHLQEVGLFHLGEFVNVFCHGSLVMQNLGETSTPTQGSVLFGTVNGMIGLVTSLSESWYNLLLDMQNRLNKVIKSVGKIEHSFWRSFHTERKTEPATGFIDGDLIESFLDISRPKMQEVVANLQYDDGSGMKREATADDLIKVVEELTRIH

One experiment deals with T1, Full length wild-type cereblon CRBN (Homo sapiens, UniProt Q96SW2).
T1 construct: Full length wild-type cereblon CRBN (80.0 nM, 10 μL) was incubated in assay buffer
T1 sequence (Q96SW2 whole entry): as the sequence (Q96SW2 whole entry) above
Nature of the experiment: Fluorescence polarization (FP) assay indicating cereblon binding. As to conditions: cereblon binding, CRBN 80.0 nM, probe 5 nM, FP read after 12 hours; read-out: rFP IC50. The text has this: Protocol for Fluorescent Polarization Assay
Compound activity was monitored in a fluorescence polarization (FP) homogeneous assay using 1-[5-({2-[2-(2-{[2-(2,6-dioxopiperidin-3-yl)-1,3-dioxo-2,3-dihydro-1H-isoindol-4-yl]oxy}acetamido)ethoxy]ethyl}carbamoyl)pentyl]-3,3-dimethyl-2-[(1E,3E)-5-[(2E)-1,3,3-trimethyl-5-sulfo-2,3-dihydro-1H-indol-2-ylidene]penta-1,3-dien-1-yl]-3H-indol-1-ium-5-sulfonate as a fluorescent probe. Unless otherwise stated, all reagents were purchased from Sigma Aldrich. Enzymatic reactions were conducted in Perkin-Elmer Black 384 well ProxiPlate Plus (catalogue no. 6008269) in 10 μL total volume. Full length wild-type cereblon CRBN (80.0 nM, 10 μL) was incubated in assay buffer containing 20 mM HEPES (pH 8.0), […], 0.5 mM TCEP and 0.05% Tween 20 in the presence or absence of compound (300 nL). Inhibitors were stored as 10 mM DMSO stocks in an inert environment (low humidity, dark, low oxygen, room temperature) using the Storage Pod System. Compounds and DMSO were dispensed using the Echo E5XX (Labcyte Inc. USA) to give concentrations from 300 to 0.937 or 3000 to 9.3 nM in a 12 data point curve. […] Following incubation at room temperature for 30 min, the assay was initiated by dispensing the probe to a final concentration of 5 nM (2.5 nL of a 20 μM stock) using the Echo E5XX. FP was measured after a period of 12 hours using a Pherastar plate reader (BMG Labtech, Germany) exciting at 590 nm and measuring the amount of parallel and perpendicular light at 675 nm. The FP signal was subsequently normalized to the no-compound control (i.e., DMSO). Analysis and IC50 values were derived using Dotmatics (Dotmatics UK) software.
On the technique in general: Fluorescence polarisation rises when a labelled molecule tumbles more slowly, as on binding a larger partner.
For `Cc1ncc(NC(=O)CCc2ccc3c(c2)C(=O)N(C2CCC(=O)NC2=O)C3)cc1Cl` (stereo not drawn) [Compound 3], the IC50 was no more than 500 nM.

Regarding `O=C1CCC(N2Cc3ccc(CCC(=O)NC4CCCCC4)cc3C2=O)C(=O)N1` (stereo not drawn) [Compound 4], the concentration for half-maximal inhibition (IC50) lay in the range of 500 to 1100 nM.

In the case of `O=C1CCC(N2Cc3ccc(CCC(=O)Nc4cccc(OC(F)(F)F)c4)cc3C2=O)C(=O)N1` (stereo not drawn) [Compound 5], the IC50 fell in the range of 1100 to 1700 nM.

As to `CC(C)CCNC(=O)CCc1ccc2c(c1)C(=O)N(C1CCC(=O)NC1=O)C2` (stereo not drawn) [Compound 6], the IC50 was greater than 1700 nM.

As to `Cc1cc(C)cc(NC(=O)CCc2ccc3c(c2)C(=O)N(C2CCC(=O)NC2=O)C3)c1` (stereo not drawn) [Compound 7], the IC50 was 500 to 1100 nM.

`O=C1CCC(N2Cc3ccc(CCC(=O)Nc4ccc(F)c(Cl)c4)cc3C2=O)C(=O)N1` (stereo not drawn) [Compound 8]: the IC50 was 500 to 1100 nM.

`O=C(CCc1ccc2c(c1)C(=O)N(C1CCC(=O)NC1=O)C2)NCC1CC1` (stereo not drawn) [Compound 9]: the IC50 lay within 500 to 1100 nM.

On to `COc1cc(C)c(Cl)cc1NC(=O)CCc1ccc2c(c1)C(=O)N(C1CCC(=O)NC1=O)C2` (stereo not drawn) [Compound 10], for which the IC50 was in the range of 500 to 1100 nM.

For `O=C1CCC(N2Cc3ccc(CCC(=O)Nc4cc(Cl)cc(OC(F)(F)F)c4)cc3C2=O)C(=O)N1` (stereo not drawn) [Compound 11], the IC50 is greater than 1700 nM.

In the case of `O=C1CCC(N2Cc3ccc(CCC(=O)NC4CCN(c5ccccn5)CC4)cc3C2=O)C(=O)N1` (stereo not drawn) [Compound 12], the IC50 is 500 to 1100 nM.

As to `O=C1CCC(N2Cc3ccc(CCC(=O)N4CCCCC4)cc3C2=O)C(=O)N1` (stereo not drawn) [Compound 13], the IC50 is greater than 1700 nM.

On to `COc1ccc(Cl)cc1NC(=O)CCc1ccc2c(c1)C(=O)N(C1CCC(=O)NC1=O)C2` (stereo not drawn) [Compound 14], for which the IC50 was 500 to 1100 nM.

`O=C1CCC(N2Cc3ccc(CCC(=O)N4CCCC4)cc3C2=O)C(=O)N1` (stereo not drawn) [Compound 15]: the IC50 fell in the range of 1100 to 1700 nM.

Regarding `COc1cc(Cl)ccc1NC(=O)CCc1ccc2c(c1)C(=O)N(C1CCC(=O)NC1=O)C2` (stereo not drawn) [Compound 16], the IC50 was no more than 500 nM.

Turning to `O=C1CCC(N2Cc3ccc(CCC(=O)NC4CCCC4)cc3C2=O)C(=O)N1` (stereo not drawn) [Compound 17], the IC50 was 500 to 1100 nM.

The same experiment, now with this note: fluorescence polarization assay; read-out: IC50 value (cereblon binding).
`Cc1ncc(NC(=O)CCc2ccc3c(c2)C(=O)N(C2CCC(=O)NC2=O)C3)cc1Cl` (stereo not drawn) [Compound 3]: the IC50 is less than 1100 nM.

With `O=C1CCC(N2Cc3ccc(CCC(=O)NC4CCCCC4)cc3C2=O)C(=O)N1` (stereo not drawn) [Compound 4], the IC50 is less than 1100 nM.

As to `Cc1cc(C)cc(NC(=O)CCc2ccc3c(c2)C(=O)N(C2CCC(=O)NC2=O)C3)c1` (stereo not drawn) [Compound 7], the IC50 was less than 1100 nM.

Regarding `O=C1CCC(N2Cc3ccc(CCC(=O)Nc4ccc(F)c(Cl)c4)cc3C2=O)C(=O)N1` (stereo not drawn) [Compound 8], the IC50 is less than 1100 nM.

For `O=C(CCc1ccc2c(c1)C(=O)N(C1CCC(=O)NC1=O)C2)NCC1CC1` (stereo not drawn) [Compound 9], the IC50 was less than 1100 nM.

On to `COc1cc(C)c(Cl)cc1NC(=O)CCc1ccc2c(c1)C(=O)N(C1CCC(=O)NC1=O)C2` (stereo not drawn) [Compound 10], for which the IC50 is less than 1100 nM.

On to `O=C1CCC(N2Cc3ccc(CCC(=O)NC4CCN(c5ccccn5)CC4)cc3C2=O)C(=O)N1` (stereo not drawn) [Compound 12], for which the IC50 was less than 1100 nM.

`COc1ccc(Cl)cc1NC(=O)CCc1ccc2c(c1)C(=O)N(C1CCC(=O)NC1=O)C2` (stereo not drawn) [Compound 14]: the IC50 is less than 1100 nM.

On to `COc1cc(Cl)ccc1NC(=O)CCc1ccc2c(c1)C(=O)N(C1CCC(=O)NC1=O)C2` (stereo not drawn) [Compound 16], for which the IC50 was less than 1100 nM.

Turning to `O=C1CCC(N2Cc3ccc(CCC(=O)NC4CCCC4)cc3C2=O)C(=O)N1` (stereo not drawn) [Compound 17], the IC50 was less than 1100 nM.

The target in a further experiment is GSPT1 (Homo sapiens, UniProt P15170+Q96SW2). Nature of the experiment: Immunofluorescence assay for GSPT1 degradation in CAL-Si cells. Type of experiment: cell-based. On the set-up: CAL-Si cells were purchased from DSMZ (cat. Number ACC302); host or cells: CAL-Si (CAL-51) cells. As to conditions: 6 hours treatment, read-out: Code: activity for GSPT1 degradation (DC50). The method, then:
The representative compounds were tested in an immunofluorescence assay for their activity to bind to degrade GSPT1. CAL-Si cells were purchased from DSMZ (cat. Number ACC302), sub-cultured in 90% Dulbecco's MEM (4.5 g/L glucose, Gibco 11965)+10% […] inactivated FBS (BioConcept, 2-01F136I) and incubated at 37° C., 5% CO2. For the assay, imaging microtiterplate Cell Carrier 96 Ultra (Perkin Elmer 6055302) were pre-coated with Fibronectin (Sigma F085, 30 μl at 0.2 μg/ml) in PBS (100 μl, Gibco 14190) for 45 min at room temperature, rinsed with PBS and CAL-Si cells (30K cells/well) were plated and let to adhere overnight. Cells were treated with compounds typically using a serial dilution ranging from 30 μM to 0.1 nM for 6 hours. Compounds were stored at 10 mM DMSO stocks. Vehicle (DMSO), positive (CC-885, 10 μM) and rescue controls (positive control plus 0.2 μM bortezomib) were also included at this stage. Cells were subsequently rinsed with PBS and fixed in 10% Formalin solution (50 μl, Sigma HT5011)) for 20 mins at room temperature. Following three consecutive PBS washes (100 μl), cells were permeabilized in 0.1% Triton X-100 in PBS (Sigma 93443, 50 μl) for 15 mins at room temperature. Following three further PBS washes, […] blocking buffer (1% BSA, Sigma A4503, in PBS) was added for 45 min for signal-to-noise reduction.
Primary antibody (human GSPT1, Sigma HPA052488) was diluted in blocking buffer (dil.1/300, 35 μl/well) and incubated with the cells overnight at 4° C. After three PBS washes, Alexa-fluor 488 coupled secondary antibodies (Invitrogen, A32731, dil.1/1000), Alexa-fluor 647-Phalloidin (Invitrogen, A22287, dil.1/200) and DAPI (Thermo, #62248, dil.1/1000) were diluted in blocking buffer and incubated with the samples for 2 hours at room temperature. After three final PBS washes, samples were conserved in […] PBS in the dark, until measurement. Image acquisition was performed on the Operetta High-Content Imager (Perkin-Elmer). Fluorescence intensity of Alexa-Fluor 488 (GSPT1), Alexa-Fluor 647 (Actin) and DAPI (Nucleus) were measured. For the determination of GSPT1 DC50 values, a custom algorithm implemented in the PerkinElmer image analysis software Harmony-Acapella® was developed. After user-defined setting of adjustment parameters, the analysis was run identically without human intervention for all image fields. DAPI staining of the nuclei was used to determine the location of cells using standard nuclei detection modules. Segmentation artifacts were removed by threshold-based filters for area, roundness and intensity. The outline of the cells was determined analogously from the sum of the normalized, smoothed DAPI and Actin channel, starting from each nucleus.
The Alexa-Fluor 488 (GSPT1) signal intensity in each cell was finally measured, in order to obtain a Mean intensity per cell. GSPT1 degradation (DC50) was calculated after normalization to controls and data import in CDD vault Database, using non-linear regression.
`Cc1ncc(NC(=O)CCc2ccc3c(c2)C(=O)N(C2CCC(=O)NC2=O)C3)cc1Cl` (stereo not drawn) [Compound 3]: the DC50 fell in the range of 30 to 300 nM.

With `O=C1CCC(N2Cc3ccc(CCC(=O)NC4CCCCC4)cc3C2=O)C(=O)N1` (stereo not drawn) [Compound 4], the DC50 is greater than 300 nM.

For `O=C1CCC(N2Cc3ccc(CCC(=O)Nc4cccc(OC(F)(F)F)c4)cc3C2=O)C(=O)N1` (stereo not drawn) [Compound 5], the half-maximal degradation concentration (DC50) was 30 to 300 nM.

With `CC(C)CCNC(=O)CCc1ccc2c(c1)C(=O)N(C1CCC(=O)NC1=O)C2` (stereo not drawn) [Compound 6], the DC50 is greater than 300 nM.

On to `Cc1cc(C)cc(NC(=O)CCc2ccc3c(c2)C(=O)N(C2CCC(=O)NC2=O)C3)c1` (stereo not drawn) [Compound 7], for which the DC50 was no more than 30 nM.

For `O=C1CCC(N2Cc3ccc(CCC(=O)Nc4ccc(F)c(Cl)c4)cc3C2=O)C(=O)N1` (stereo not drawn) [Compound 8], the DC50 fell in the range of 30 to 300 nM.

Turning to `O=C(CCc1ccc2c(c1)C(=O)N(C1CCC(=O)NC1=O)C2)NCC1CC1` (stereo not drawn) [Compound 9], the DC50 was greater than 300 nM.

In the case of `COc1cc(C)c(Cl)cc1NC(=O)CCc1ccc2c(c1)C(=O)N(C1CCC(=O)NC1=O)C2` (stereo not drawn) [Compound 10], the DC50 is greater than 300 nM.

`O=C1CCC(N2Cc3ccc(CCC(=O)Nc4cc(Cl)cc(OC(F)(F)F)c4)cc3C2=O)C(=O)N1` (stereo not drawn) [Compound 11]: the DC50 was no more than 30 nM.

For `O=C1CCC(N2Cc3ccc(CCC(=O)NC4CCN(c5ccccn5)CC4)cc3C2=O)C(=O)N1` (stereo not drawn) [Compound 12], the DC50 was greater than 300 nM.

For `O=C1CCC(N2Cc3ccc(CCC(=O)N4CCCCC4)cc3C2=O)C(=O)N1` (stereo not drawn) [Compound 13], the DC50 is greater than 300 nM.

Regarding `COc1ccc(Cl)cc1NC(=O)CCc1ccc2c(c1)C(=O)N(C1CCC(=O)NC1=O)C2` (stereo not drawn) [Compound 14], the DC50 was greater than 300 nM.

Regarding `O=C1CCC(N2Cc3ccc(CCC(=O)N4CCCC4)cc3C2=O)C(=O)N1` (stereo not drawn) [Compound 15], the DC50 was greater than 300 nM.

In the case of `COc1cc(Cl)ccc1NC(=O)CCc1ccc2c(c1)C(=O)N(C1CCC(=O)NC1=O)C2` (stereo not drawn) [Compound 16], the DC50 was greater than 300 nM.

For `O=C1CCC(N2Cc3ccc(CCC(=O)NC4CCCC4)cc3C2=O)C(=O)N1` (stereo not drawn) [Compound 17], the DC50 was greater than 300 nM.

Staying with this experiment, now noted: GSPT1 degradation, 6 hours treatment, read-out: DC50.
Take `Cc1cc(C)cc(NC(=O)CCc2ccc3c(c2)C(=O)N(C2CCC(=O)NC2=O)C3)c1` (stereo not drawn) [Compound 7]: the 50% degradation concentration (DC50) was found to be 25 nM.

Turning to `O=C1CCC(N2Cc3ccc(CCC(=O)Nc4cc(Cl)cc(OC(F)(F)F)c4)cc3C2=O)C(=O)N1` (stereo not drawn) [Compound 11], the DC50 turned out to be 17 nM.
